The values below come from ChEMBL document CHEMBL1124481, “2-Haloaporphines as potent dopamine agonists” (J Med Chem, 1989).

Experiment [1] relates to D(2) dopamine receptor (Sus scrofa). In words: Compound was evaluated for the ability to displace [3H]-spiperone at Dopamine receptor D2 in porcine anterior pituitary gland as low affinity state.
Experiment [2] has the same test system. The experiment in a line: Proportion of high affinity state of Dopamine receptor D2 measured by compound ability to displace [3H]spiperone from porcine anterior pituitary membranes.

Each structure is given as a SMILES string.

For the compound `CN1CCc2cc(N)cc3c2[C@H]1Cc1ccc(O)c(O)c1-3`, the D-2 in experiment [1] was determined as 38%; in experiment [2], 62%.

For the compound `CN1CCc2cc(Br)cc3c2[C@H]1Cc1ccc(O)c(O)c1-3`, the D-2 in experiment [1] worked out at 49%; in experiment [2], 62%.
